Measurements: the NIST ThermoML archive (doi:10.1021/je050010l)
Numbers after ± are expanded uncertainties.

Tests used:
[1] = refractive index (Na D-line) (dimensionless); xn = mol fraction of the nth substance listed; conditions: 100.8 kPa, Liquid, Standard Abbe refractometry
[2] = xn = mol fraction of the nth substance listed; conditions: 100.8 kPa, Liquid; for viscosity: Capillary tube (Ostwald / Ubbelohde) method

CC(C)=O [acetone] + CCO
Conditions | mass density, 288.15 K [kg/m3] | mass density, 298.15 K [kg/m3] | mass density, 308.15 K [kg/m3] | refractive index, 288.15 K | refractive index, 298.15 K | refractive index, 308.15 K | viscosity, 288.15 K [mPa·s] | viscosity, 298.15 K [mPa·s] | viscosity, 308.15 K [mPa·s]
[1], x1 = 0.05 | – | – | – | 1.36354 ± 0.00031 | 1.35919 ± 0.00031 | 1.35486 ± 0.00031 | – | – | –
[1], x1 = 0.1 | – | – | – | 1.3636 ± 0.00031 | 1.35915 ± 0.00031 | 1.3547 ± 0.00031 | – | – | –
[1], x1 = 0.15 | – | – | – | 1.36366 ± 0.00031 | 1.35909 ± 0.00031 | 1.35454 ± 0.00031 | – | – | –
[1], x1 = 0.2 | – | – | – | 1.36361 ± 0.00031 | 1.35899 ± 0.00031 | 1.35435 ± 0.00031 | – | – | –
[1], x1 = 0.25 | – | – | – | 1.36357 ± 0.00031 | 1.35887 ± 0.00031 | 1.35414 ± 0.00031 | – | – | –
[1], x1 = 0.3 | – | – | – | 1.3635 ± 0.00031 | 1.35873 ± 0.00031 | 1.35391 ± 0.00031 | – | – | –
[1], x1 = 0.35 | – | – | – | 1.36343 ± 0.00031 | 1.35857 ± 0.00031 | 1.35369 ± 0.00031 | – | – | –
[1], x1 = 0.4 | – | – | – | 1.36334 ± 0.00031 | 1.35842 ± 0.00031 | 1.35346 ± 0.00031 | – | – | –
[1], x1 = 0.45 | – | – | – | 1.36324 ± 0.00031 | 1.35826 ± 0.00031 | 1.35324 ± 0.00031 | – | – | –
[1], x1 = 0.4999 | – | – | – | 1.36313 ± 0.00031 | 1.35809 ± 0.00031 | 1.353 ± 0.00031 | – | – | –
[1], x1 = 0.55 | – | – | – | 1.36301 ± 0.00031 | 1.3579 ± 0.00031 | 1.35276 ± 0.00031 | – | – | –
[1], x1 = 0.6 | – | – | – | 1.36289 ± 0.00031 | 1.35771 ± 0.00031 | 1.35251 ± 0.00031 | – | – | –
[1], x1 = 0.65 | – | – | – | 1.36275 ± 0.00031 | 1.35753 ± 0.00031 | 1.35228 ± 0.00031 | – | – | –
[1], x1 = 0.7 | – | – | – | 1.36261 ± 0.00031 | 1.35734 ± 0.00031 | 1.35203 ± 0.00031 | – | – | –
[1], x1 = 0.75 | – | – | – | 1.36246 ± 0.00031 | 1.35713 ± 0.00031 | 1.35177 ± 0.00031 | – | – | –
[1], x1 = 0.8 | – | – | – | 1.3623 ± 0.00031 | 1.35692 ± 0.00031 | 1.35152 ± 0.00031 | – | – | –
[1], x1 = 0.8501 | – | – | – | 1.36214 ± 0.00031 | 1.35673 ± 0.00031 | 1.35127 ± 0.00031 | – | – | –
[1], x1 = 0.9 | – | – | – | 1.36198 ± 0.00031 | 1.35651 ± 0.00031 | 1.35102 ± 0.00031 | – | – | –
[1], x1 = 0.95 | – | – | – | 1.36177 ± 0.00031 | 1.35629 ± 0.00031 | 1.3508 ± 0.00031 | – | – | –
[1], x1 = 1 | – | – | – | 1.36152 ± 0.00031 | 1.35605 ± 0.00031 | 1.35057 ± 0.00031 | – | – | –
[2], x1 = 0.05 | 794.4 ± 0.23 | 785.59 ± 0.23 | 776.66 ± 0.24 | – | – | – | 1.126 ± 0.009 | 0.944 ± 0.008 | 0.793 ± 0.007
[2], x1 = 0.1 | 794.86 ± 0.23 | 785.84 ± 0.23 | 776.66 ± 0.24 | – | – | – | 0.985 ± 0.008 | 0.829 ± 0.007 | 0.703 ± 0.006
[2], x1 = 0.15 | 795.23 ± 0.23 | 786 ± 0.23 | 776.61 ± 0.24 | – | – | – | 0.873 ± 0.007 | 0.741 ± 0.006 | 0.632 ± 0.005
[2], x1 = 0.2 | 795.5 ± 0.23 | 786.08 ± 0.23 | 776.53 ± 0.24 | – | – | – | 0.783 ± 0.007 | 0.669 ± 0.006 | 0.575 ± 0.005
[2], x1 = 0.25 | 795.75 ± 0.23 | 786.16 ± 0.23 | 776.41 ± 0.24 | – | – | – | 0.709 ± 0.006 | 0.61 ± 0.005 | 0.527 ± 0.005
[2], x1 = 0.3 | 795.99 ± 0.23 | 786.23 ± 0.23 | 776.28 ± 0.24 | – | – | – | 0.649 ± 0.006 | 0.561 ± 0.005 | 0.487 ± 0.004
[2], x1 = 0.35 | 796.18 ± 0.23 | 786.24 ± 0.23 | 776.12 ± 0.24 | – | – | – | 0.598 ± 0.005 | 0.521 ± 0.005 | 0.453 ± 0.004
[2], x1 = 0.4 | 796.34 ± 0.23 | 786.23 ± 0.23 | 775.96 ± 0.24 | – | – | – | 0.556 ± 0.005 | 0.486 ± 0.004 | 0.426 ± 0.004
[2], x1 = 0.45 | 796.46 ± 0.23 | 786.21 ± 0.23 | 775.79 ± 0.24 | – | – | – | 0.518 ± 0.005 | 0.457 ± 0.004 | 0.403 ± 0.004
[2], x1 = 0.4999 | 796.57 ± 0.23 | 786.19 ± 0.23 | 775.63 ± 0.24 | – | – | – | 0.488 ± 0.004 | 0.431 ± 0.004 | 0.383 ± 0.004
[2], x1 = 0.55 | 796.68 ± 0.22 | 786.17 ± 0.23 | 775.47 ± 0.24 | – | – | – | 0.461 ± 0.004 | 0.409 ± 0.004 | 0.364 ± 0.003
[2], x1 = 0.6 | 796.77 ± 0.22 | 786.13 ± 0.23 | 775.3 ± 0.24 | – | – | – | 0.438 ± 0.004 | 0.39 ± 0.004 | 0.349 ± 0.003
[2], x1 = 0.65 | 796.84 ± 0.22 | 786.07 ± 0.23 | 775.13 ± 0.24 | – | – | – | 0.418 ± 0.004 | 0.373 ± 0.003 | 0.335 ± 0.003
[2], x1 = 0.7 | 796.86 ± 0.22 | 786 ± 0.23 | 774.96 ± 0.24 | – | – | – | 0.401 ± 0.004 | 0.358 ± 0.003 | 0.322 ± 0.003
[2], x1 = 0.75 | 796.88 ± 0.22 | 785.9 ± 0.23 | 774.77 ± 0.24 | – | – | – | 0.386 ± 0.004 | 0.345 ± 0.003 | 0.312 ± 0.003
[2], x1 = 0.8 | 796.91 ± 0.22 | 785.84 ± 0.23 | 774.59 ± 0.24 | – | – | – | 0.373 ± 0.003 | 0.334 ± 0.003 | 0.303 ± 0.003
[2], x1 = 0.8501 | 796.9 ± 0.22 | 785.73 ± 0.23 | 774.4 ± 0.24 | – | – | – | 0.363 ± 0.003 | 0.325 ± 0.003 | 0.295 ± 0.003
[2], x1 = 0.9 | 796.92 ± 0.22 | 785.66 ± 0.23 | 774.23 ± 0.24 | – | – | – | 0.353 ± 0.003 | 0.317 ± 0.003 | 0.288 ± 0.003
[2], x1 = 0.95 | 796.91 ± 0.22 | 785.57 ± 0.23 | 774.08 ± 0.24 | – | – | – | 0.344 ± 0.003 | 0.309 ± 0.003 | 0.281 ± 0.003
[2], x1 = 1 | 796.87 ± 0.22 | 785.47 ± 0.23 | 773.91 ± 0.24 | – | – | – | 0.334 ± 0.003 | 0.302 ± 0.003 | 0.274 ± 0.003
